Laboratory results from US20150313236A1 (ROHM AND HAAS COMPANY, priority 2012, published 2015).
Where two headings read alike, the source gives them in different places.

Key:
[1] = test system: Chlorella sp. ATCC 7516; test: Algal efficacy test of dry paint films (modified ASTM 5589, 6-well plates); format: cell-based; details: for inhibition at 2000 ppm: 504 h, read-out: % inhibition of visible algal growth
Method: (§1) ROCIMA™ 250 (40% IPBC) was post added to a white, acrylic/silicone based outdoor paint free of biocides to give a total active ingredient concentration of 10000 and 1000 ppm respectively. These paints were then diluted with an antimicrobial free acrylic/silicone based paint and mixed to prepare targeted concentrations of antimicrobial compounds for the testing. The total biocides concentrations tested were 125, 250, 500, 1000, 2000 and 5000 ppm. After biocides addition or dilution, the paints were mixed 90 seconds with the horse power shaker (AXEL 75M3372/Agitateur SO-10MI) until uniformity was achieved. Paints containing different antimicrobial compounds at the same levels were mixed together in order to obtain the desired ratio of antimicrobial compounds. After one day, the paints were applied to Schleicher & Schuell filter paper at 280 μm wet film thickness and dried for 3 days at room temperature avoiding direct exposure to sunlight. Square discs (1.6 cm×1.6 cm) were cut out from each panel and were used as the substrate for algal efficacy tests. This sample size allowed for an agar border when the sample disc was placed into the well of the test plate.
(§2) Algal efficacy was tested according to modified ASTM 5589 which is a standard accelerated test method for determining resistance of various coatings (including paints) to algal defacement. To accommodate for high-throughput screening, this method was scaled down from petri dishes to 6-well plates. Bold Modified Basal Freshwater Nutrient Solution was used as growth medium. A single coated filter paper coupon was placed with a pair of sterile forceps at the center of the agar plug (on top) with the painted surface facing upwards. Algal inoculums were prepared by mixing equal concentrations (1×10^6 cfu/ml) and equal volumes of exponentially growing algae cultures.
(§3) Each well that contains a tested coupon was inoculated with 1750 μl of algal suspensions (1×10^6 cfu/ml) making sure that the whole surface (paint film as well as the agar surrounding it) was evenly covered. The plates were incubated at room temp (21° C.-25° C.) with cyclic exposure to light and dark phases, for a period of three weeks.
(§4) At the end of the three week incubation period, the samples were scored for percent inhibition regarding visible algal growth compared to the blank sample (0% inhibition).
(§5) The Synergy Index calculation was performed as follows.
(§6) The SI is calculated based on F. C. Kull et.
(§7) SI value of <1 in the formula indicates a synergism of the blended biocides exists.
(§8) The minimal targeted inhibition was set at 75%, meaning a coupon with at least 75% algal growth inhibition was considered as a pass.

[2] = test system: Stichococcus bacillaris SAG 379-1a; test: as above; format: cell-based; details: 3 weeks
Method: as §1, §2, §3, §4, §5, §6, §7, §8

SMILES | inhibition at 2000 ppm ([1]; total conc 2000 ppm, 3 weeks, vs blank sample) [%] | Total conc (minimum inhibitory concentration chosen for SI; pass level ≧75% inhibition) ([1]; total active in liquid paint, dry film, 3 weeks) [ppm] | inhibition at 1000 ppm ([2]; Stichococcus bacillaris, 504 h, total conc 1000 ppm, vs blank sample, read-out: % inhibition of visible algal growth) [%] | Total conc (minimum inhibitory concentration chosen for SI; pass level ≧75% inhibition) ([2]; total active in liquid paint, dry film) [ppm] | inhibition at 2000 ppm [1] [%] | inhibition at 2000 ppm ([2]; Stichococcus bacillaris, 504 h, total conc 2000 ppm, vs blank sample, read-out: % inhibition of visible algal growth) [%]
CCCCNC(=O)OCC#CI [IPBC, 3-Iodoprop-2-yn-1-yl butylcarbamate] | 100 | 2000 | 100 | 1000 | – | –
O=c1[nH]c2c(c(=O)n1C1CCCCC1)CCC2 [Lenacil, 3-cyclohexyl-1,5,6,7-tetrahydrocyclopentapyrimidine-2,4(3H)-dione] | – | – | – | – | 65 | 80
